Data reported in ChEMBL document CHEMBL1133904, “Stereoselective synthesis and antibacterial evaluation of 4-amido-isothiazolidinone oxides” (Bioorg Med Chem Lett, 2001).
≈ marks a conversion by molar mass, not a printed value.

How the values were obtained:
Streptococcus pneumoniae [1] = experiment: In vitro antibacterial activity against Streptococcus pneumoniae; range is 62.5->1000; type: functional
Klebsiella pneumoniae [2] = experiment: In vitro antibacterial activity against Klebsiella pneumoniae; range is 62.5->1000; type: functional
Staphylococcus aureus [3] = experiment: In vitro antibacterial activity against Staphylococcus aureus; range is 62.5->1000; type: functional
[4] = biological target: T1, Penicillin-binding protein 2 (Staphylococcus aureus, UniProt Q53729); experiment: Inhibition of Penicillin-binding protein 2 (PBP2) from Staphylococcus aureus
T1 sequence (Q53729 whole entry): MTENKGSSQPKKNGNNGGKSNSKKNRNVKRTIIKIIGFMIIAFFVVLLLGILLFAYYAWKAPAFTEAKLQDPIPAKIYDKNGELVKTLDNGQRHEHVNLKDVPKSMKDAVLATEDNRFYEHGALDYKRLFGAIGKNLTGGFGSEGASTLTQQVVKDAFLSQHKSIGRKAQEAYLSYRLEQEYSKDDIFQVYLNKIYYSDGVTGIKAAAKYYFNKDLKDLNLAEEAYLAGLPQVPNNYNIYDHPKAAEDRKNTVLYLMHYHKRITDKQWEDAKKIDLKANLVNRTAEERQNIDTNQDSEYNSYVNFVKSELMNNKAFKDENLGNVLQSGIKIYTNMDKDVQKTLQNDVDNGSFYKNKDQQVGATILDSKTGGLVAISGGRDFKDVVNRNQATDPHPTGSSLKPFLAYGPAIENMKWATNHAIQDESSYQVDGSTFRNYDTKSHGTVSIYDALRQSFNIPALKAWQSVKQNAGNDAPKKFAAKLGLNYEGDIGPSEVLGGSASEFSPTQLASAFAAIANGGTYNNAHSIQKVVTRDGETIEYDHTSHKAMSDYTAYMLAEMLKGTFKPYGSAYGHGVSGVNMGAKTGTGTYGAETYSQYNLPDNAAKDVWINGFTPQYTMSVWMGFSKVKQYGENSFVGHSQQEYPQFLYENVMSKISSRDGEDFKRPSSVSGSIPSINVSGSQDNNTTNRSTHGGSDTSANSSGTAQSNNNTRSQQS

[5] = biological target: T2, Penicillin-binding protein 3 (Staphylococcus aureus, UniProt Q5D1F0); experiment: Inhibition of Penicillin-binding protein 3 (PBP3) from Staphylococcus aureus
T2 sequence (Q5D1F0 whole entry): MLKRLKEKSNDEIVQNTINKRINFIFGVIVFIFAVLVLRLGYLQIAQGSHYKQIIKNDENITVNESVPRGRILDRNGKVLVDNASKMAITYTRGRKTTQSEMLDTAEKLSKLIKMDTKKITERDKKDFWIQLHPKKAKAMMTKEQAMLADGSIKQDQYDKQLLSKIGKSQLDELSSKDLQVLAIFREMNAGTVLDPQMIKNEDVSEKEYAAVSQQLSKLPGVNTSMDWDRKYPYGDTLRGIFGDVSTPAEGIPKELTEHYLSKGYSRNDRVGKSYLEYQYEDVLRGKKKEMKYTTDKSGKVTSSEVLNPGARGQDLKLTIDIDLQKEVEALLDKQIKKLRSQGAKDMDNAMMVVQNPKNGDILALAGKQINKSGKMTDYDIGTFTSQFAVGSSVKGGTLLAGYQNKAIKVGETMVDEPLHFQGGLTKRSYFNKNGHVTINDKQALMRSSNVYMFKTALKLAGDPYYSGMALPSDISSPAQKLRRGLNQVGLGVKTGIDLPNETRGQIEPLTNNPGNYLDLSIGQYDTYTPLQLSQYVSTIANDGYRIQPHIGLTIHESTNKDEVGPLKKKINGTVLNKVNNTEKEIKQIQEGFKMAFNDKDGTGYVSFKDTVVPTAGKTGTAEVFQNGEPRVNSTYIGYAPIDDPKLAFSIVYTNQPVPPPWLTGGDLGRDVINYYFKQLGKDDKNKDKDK

[6] = biological target: T3, Penicillin-binding protein 1 (Staphylococcus aureus, UniProt Q53725); experiment: Inhibition of Penicillin-binding protein 1 (PBP1) from Staphylococcus aureus
T3 sequence (Q53725 whole entry): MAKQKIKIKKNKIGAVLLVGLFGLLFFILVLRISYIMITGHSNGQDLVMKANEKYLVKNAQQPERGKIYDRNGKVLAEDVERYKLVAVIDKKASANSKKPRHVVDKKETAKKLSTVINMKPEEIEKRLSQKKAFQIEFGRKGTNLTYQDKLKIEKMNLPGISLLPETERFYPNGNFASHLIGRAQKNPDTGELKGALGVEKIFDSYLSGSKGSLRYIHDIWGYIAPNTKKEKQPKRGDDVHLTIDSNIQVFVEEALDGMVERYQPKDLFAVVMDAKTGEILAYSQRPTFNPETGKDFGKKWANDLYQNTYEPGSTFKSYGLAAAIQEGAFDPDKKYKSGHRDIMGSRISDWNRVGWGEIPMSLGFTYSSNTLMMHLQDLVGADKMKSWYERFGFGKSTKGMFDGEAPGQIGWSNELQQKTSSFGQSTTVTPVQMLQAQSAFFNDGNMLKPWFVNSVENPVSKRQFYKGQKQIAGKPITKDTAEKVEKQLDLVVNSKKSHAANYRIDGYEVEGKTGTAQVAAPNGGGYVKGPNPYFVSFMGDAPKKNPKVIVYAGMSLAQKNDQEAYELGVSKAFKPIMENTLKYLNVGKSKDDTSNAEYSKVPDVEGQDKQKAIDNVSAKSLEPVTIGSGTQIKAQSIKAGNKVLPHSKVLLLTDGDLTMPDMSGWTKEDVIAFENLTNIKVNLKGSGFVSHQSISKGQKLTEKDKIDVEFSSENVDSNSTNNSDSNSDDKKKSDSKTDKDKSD

[7] = Half life period was measured at pH 7.4 in phosphate buffer; type: ADME
Streptococcus pneumoniae [8] = experiment: In vitro antibacterial activity against Streptococcus pneumoniae; range is 1.6->100; type: functional
Klebsiella pneumoniae [9] = experiment: In vitro antibacterial activity against Klebsiella pneumoniae; range is 1.6->100; type: functional
Staphylococcus aureus [10] = experiment: In vitro antibacterial activity against Staphylococcus aureus; range is 1.6->100; type: functional
Moraxella catarrhalis [11] = experiment: In vitro antibacterial activity against Moraxella catarrhalis; type: functional
Klebsiella pneumoniae [12] = experiment: In vitro antibacterial activity against Klebsiella pneumoniae; type: functional
Enterobacter cloacae [13] = experiment: In vitro antibacterial activity against Enterobacter cloacae; type: functional
Klebsiella pneumoniae [14] = experiment: In vitro antibacterial activity against Klebsiella pneumoniae; range is 15.6->1000; type: functional
Moraxella catarrhalis [15] = experiment: In vitro antibacterial activity against Moraxella catarrhalis; range is 15.6->1000; type: functional
Enterobacter cloacae [16] = experiment: In vitro antibacterial activity against Enterobacter cloacae; range is 15.6->1000; type: functional
Klebsiella pneumoniae [17] = experiment: In vitro antibacterial activity against Klebsiella pneumoniae; range is 31.3->1000; type: functional
Enterobacter cloacae [18] = experiment: In vitro antibacterial activity against Enterobacter cloacae; range is 31.3->1000; type: functional
Moraxella catarrhalis [19] = experiment: In vitro antibacterial activity against Moraxella catarrhalis; range is 31.3->1000; type: functional
Moraxella catarrhalis [20] = experiment: In vitro antibacterial activity against Moraxella catarrhalis; range is 125->1000; type: functional
Enterobacter cloacae [21] = experiment: In vitro antibacterial activity against Enterobacter cloacae; range is 125->1000; type: functional
Klebsiella pneumoniae [22] = experiment: In vitro antibacterial activity against Klebsiella pneumoniae; range is 125->1000; type: functional
Klebsiella pneumoniae [23] = experiment: In vitro antibacterial activity against Klebsiella pneumoniae; range is 2->32; type: functional
Staphylococcus aureus [24] = experiment: In vitro antibacterial activity against Staphylococcus aureus; range is 2->32; type: functional
Streptococcus pneumoniae [25] = experiment: In vitro antibacterial activity against Streptococcus pneumoniae; range is 2->32; type: functional
Enterobacter cloacae [26] = experiment: In vitro antibacterial activity against Enterobacter cloacae; range is 62.6->1000; type: functional
Klebsiella pneumoniae [27] = experiment: In vitro antibacterial activity against Klebsiella pneumoniae; range is 62.6->1000; type: functional
Moraxella catarrhalis [28] = experiment: In vitro antibacterial activity against Moraxella catarrhalis; range is 62.6->1000; type: functional
Klebsiella pneumoniae [29] = experiment: In vitro antibacterial activity against Klebsiella pneumoniae; range is 16->1000; type: functional
Moraxella catarrhalis [30] = experiment: In vitro antibacterial activity against Moraxella catarrhalis; range is 16->1000; type: functional
Enterobacter cloacae [31] = experiment: In vitro antibacterial activity against Enterobacter cloacae; range is 16->1000; type: functional

Row | SMILES | IC50 [4] [µM] | IC50 [5] [µM] | IC50 [6] [µM] | half-life [7] [h] | MIC (Moraxella catarrhalis [11]) [µg/mL] | MIC (Klebsiella pneumoniae [12]) [µg/mL] | MIC (Enterobacter cloacae [13]) [µg/mL] | other results
1 | O=C(O)CN1C[C@H](NC(=O)COc2ccccc2)C1=O | > 898 | > 898 | > 898 | > 32 | – | – | – | MIC (Streptococcus pneumoniae [1]): 62.5 µg/mL (≈ 225 µM); MIC (Klebsiella pneumoniae [2]): 62.5 µg/mL (≈ 225 µM); MIC (Staphylococcus aureus [3]): 62.5 µg/mL (≈ 225 µM)
2 | CCCCNOS(=O)(=O)N1C[C@H](NC(=O)Cc2ccccc2)C1=O | > 703 | > 703 | > 703 | – | – | – | – | MIC (Streptococcus pneumoniae [8]): 1.6 µg/mL (≈ 4.5 µM); MIC (Klebsiella pneumoniae [9]): 1.6 µg/mL (≈ 4.5 µM); MIC (Staphylococcus aureus [10]): 1.6 µg/mL (≈ 4.5 µM)
3 | CC(C)[C@@H](C(=O)O)N1C(=O)[C@@H](NC(=O)COc2ccccc2)C[S+]1[O-] (stereo partly specified) | > 679 | > 679 | > 679 | < 1.4 | > 1000 | > 1000 | > 1000 | –
4 | CCCCNOS(=O)(=O)N1C(=O)[C@@H](NC(=O)COc2ccc(Cl)cc2)CS1(=O)=O | > 532 | > 532 | > 532 | < 0.4 | > 64 | > 64 | > 64 | –
5 | CC(C)[C@H](C(=O)O)N1C(=O)[C@@H](NC(=O)COc2ccccc2)C[S+]1[O-] (stereo partly specified) | > 679 | > 679 | > 679 | < 3.3 | > 1000 | > 1000 | > 1000 | –
6 | O=C(CN1C(=O)C(NC(=O)Oc2ccc(Cl)cc2)CS1(=O)=O)OCc1ccccc1 (stereo unspecified) | > 552 | > 552 | > 552 | 5.1 | – | – | – | MIC (Klebsiella pneumoniae [14]): 15.6 µg/mL (≈ 34.4 µM); MIC (Moraxella catarrhalis [15]): 15.6 µg/mL (≈ 34.4 µM); MIC (Enterobacter cloacae [16]): 15.6 µg/mL (≈ 34.4 µM)
7 | CC(C)C(C(=O)OC(C)(C)C)N1C(=O)C(NC(=O)OCc2ccccc2)CS1(=O)=O (stereo unspecified) | > 568 | > 568 | > 568 | 15.8 | – | – | – | MIC (Klebsiella pneumoniae [17]): 31.3 µg/mL (≈ 71.1 µM); MIC (Enterobacter cloacae [18]): 31.3 µg/mL (≈ 71.1 µM); MIC (Moraxella catarrhalis [19]): 31.3 µg/mL (≈ 71.1 µM)
8 | CC(C(=O)O)N1C(=O)C(NC(=O)Oc2ccc(Cl)cc2)CS1(=O)=O (stereo unspecified) | > 664 | > 664 | > 664 | 15.7 | – | – | – | MIC (Moraxella catarrhalis [20]): 125 µg/mL (≈ 332 µM); MIC (Enterobacter cloacae [21]): 125 µg/mL (≈ 332 µM); MIC (Klebsiella pneumoniae [22]): 125 µg/mL (≈ 332 µM)
9 | CC(C)[C@H](C(=O)O)N1C[C@H](NC(=O)COc2ccccc2)C1=O | > 780 | > 780 | > 780 | > 48 | – | – | – | MIC (Klebsiella pneumoniae [23]): 2 µg/mL (≈ 6.24 µM); MIC (Staphylococcus aureus [24]): 2 µg/mL (≈ 6.24 µM); MIC (Streptococcus pneumoniae [25]): 2 µg/mL (≈ 6.24 µM)
10 | CO/N=C(/C(=O)NC1CS(=O)(=O)N(CC(=O)O)C1=O)c1csc(N)n1.O=C(O)C(F)(F)F (stereo unspecified) | > 495 | > 495 | > 495 | 5.6 | > 64 | > 64 | > 64 | –
11 | CC(C)[C@H](C(=O)OCc1ccccc1)N1C(=O)[C@@H](NC(=O)COc2ccccc2)C[S+]1[O-] (stereo partly specified) | > 545 | > 545 | > 545 | < 0.5 | – | – | – | MIC (Enterobacter cloacae [26]): 62.6 µg/mL (≈ 137 µM); MIC (Klebsiella pneumoniae [27]): 62.6 µg/mL (≈ 137 µM); MIC (Moraxella catarrhalis [28]): 62.6 µg/mL (≈ 137 µM)
12 | CC(C(=O)OC(C)(C)C)N1C(=O)C(NC(=O)Oc2ccc(Cl)cc2)CS1(=O)=O (stereo unspecified) | > 578 | > 578 | > 578 | – | – | – | – | MIC (Klebsiella pneumoniae [17]): 31.3 µg/mL (≈ 72.3 µM); MIC (Enterobacter cloacae [18]): 31.3 µg/mL (≈ 72.3 µM); MIC (Moraxella catarrhalis [19]): 31.3 µg/mL (≈ 72.3 µM)
13 | CC(C)[C@@H](C(=O)O)N1C(=O)C(NC(=O)COc2ccccc2)CS1(=O)=O (stereo partly specified) | > 650 | > 650 | > 650 | 22 | – | – | – | MIC (Klebsiella pneumoniae [29]): 16 µg/mL (≈ 41.6 µM); MIC (Moraxella catarrhalis [30]): 16 µg/mL (≈ 41.6 µM); MIC (Enterobacter cloacae [31]): 16 µg/mL (≈ 41.6 µM)
14 | O=C(O)CN1C(=O)C(NC(=O)COc2ccccc2)CS1(=O)=O (stereo unspecified) | > 730 | > 730 | > 730 | 11.9 | > 100 | > 100 | > 100 | –
